{"source": "patent US9730445B2", "about": "“Herbicidal compositions comprising 4-amino-3-chloro-5-fluoro-6-(4-chloro-2-fluoro-3-methoxyphenyl) pyridine-2-carboxylic acid or a derivative thereof and fungicides” (DOW AGROSCIENCES LLC, priority 2013, dated 2017)", "key": {"IPOHE": {"test_system": "IPOHE", "test": "Postemergence foliar-applied weed control, direct-seeded rice (greenhouse)", "format": "in vivo, Ipomoea hederacea (L.) Jacq. (ivyleaf morningglory)", "description": "(§1) Seeds or nutlets of the desired test plant species were planted in a soil matrix prepared by mixing aloam or sandy loam soil (e.g., 28.6 percent silt, 18.8 percent clay, and 52.6 percent sand, with a pH of about 5.8 and an organic matter content of about 1.8 percent) and calcareous grit in an 80 to 20 ratio. The soil matrix was contained in plastic pots with a volume of 1 quart and a surface area of 83.6 square centimeters (cm^2). […] The plants were grown for 8-22 days in a greenhouse with an approximate 14 hour (h) photoperiod which was maintained at about 29° C. during the day and 26° C. during the night. Nutrients (Peters Excel® 15-5-15 5-Ca 2-Mg and iron chelate) were applied in the irrigation solution as needed and water was added on a regular basis. Supplemental lighting was provided with overhead metal halide 1000-Watt lamps as necessary. The plants were employed for testing when they reached the first through fourth true leaf stage.\n(§2) Treatments consisted of the acid or esters of 4-amino-3-chloro-5-fluoro-6-(4-chloro-2-fluoro-3-methoxy-phenyl)pyridine-2-carboxylic acid (Compound A), each formulated as an SC (suspension concentrate), and various fungicidal components alone and in combination. Forms of compound A were applied on an acid equivalent basis.\n(§3) For treatments comprised of formulated compounds, measured amounts of compounds were placed individually in 25 mL glass vials and diluted in a volume of 1.25% volume per volume (v/v) Agri-Dex® crop oil concentrate to obtain 12× stock solutions. […] Application solutions were prepared by adding an appropriate amount of each stock solution (e.g., 1 mL) and diluted to the appropriate final concentrations with the addition of […] of an aqueous mixture of 1.25% (v/v) crop oil concentrate so that the final spray solutions contained 1.25+/−0.05% (v/v) crop oil concentrate.\n(§4) For treatments comprised of technical compounds, weighed amounts can be placed individually in 25 mL glass vials and dissolved in a volume of 97:3 volume per volume (v/v) acetone/dimethyl sulfoxide (DMSO) to obtain 12× stock solutions. […] When technical materials are used, the concentrated stock solutions can be added to the spray solutions so that the final acetone and DMSO concentrations of the application solutions are 16.2% and 0.5%, respectively.\n(§5) As required, additional water and/or 97:3 v/v acetone/DMSO was added to individual application solutions so that the final acetone and DMSO concentrations of the application solutions being compared were 8.1% and 0.25%, respectively\n(§6) All stock solutions and applications solutions were visually inspected for compound compatibility prior to application. Spray solutions were applied to the plant material with an overhead Mandel track sprayer equipped with 8002E nozzles calibrated to deliver 187 L/ha over an application area of 0.503 square meters (m^2) at a spray height of 18 to 20 inches (46 to 50 cm) above average plant canopy height. Control plants were sprayed in the same manner with the solvent blank.\n(§7) The treated plants and control plants were placed in a greenhouse as described above and watered by sub-irrigation to prevent wash-off of the test compounds. After approximately 3 weeks, the condition of the test plants as compared with that of the untreated plants was determined visually and scored on a scale of 0 to 100 percent where 0 corresponds to no injury or growth inhibition and 100 corresponds to complete kill.\n(§8) Colby's equation was used to determine the herbicidal effects expected from the mixtures (Colby, S. R. Calculation of the synergistic and antagonistic response of herbicide combinations. Weeds 1967, 15, 20-22.).\n(§9) The following equation was used to calculate the expected activity of mixtures containing two active ingredients, A and B: Expected=A+B−(A×B/100)"}, "LEFCH": {"test_system": "LEFCH", "test": "Postemergence foliar-applied weed control, direct-seeded rice (greenhouse)", "format": "in vivo, Leptochloa chinensis (L.) Nees (Chinese sprangletop)", "description": "as §1, §2, §3, §4, §5, §6, §7, §8, §9"}, "ECHCO": {"test_system": "ECHCO", "test": "Postemergence foliar-applied weed control, direct-seeded rice (greenhouse)", "format": "in vivo, Echinochloa colonum (L.) LINK (junglerice)", "conditions": "19 DAA, r9-11 ester 8/16/32 g ae/ha alone", "from_the_text": "(§10) Seeds or nutlets of the desired test plant species were planted in a soil matrix prepared by mixing aloam or sandy loam soil (e.g., 28.6 percent silt, 18.8 percent clay, and 52.6 percent sand, with a pH of about 5.8 and an organic matter content of about 1.8 percent) and calcareous grit in an 80 to 20 ratio. The soil matrix was contained in plastic pots with a volume of 1 quart and a surface area of 83.6 square centimeters (cm^2). When required to ensure good germination and healthy plants, a fungicide treatment and/or other chemical or physical treatment was applied. The plants were grown for 8-22 days in a greenhouse with an approximate 14 hour (h) photoperiod which was maintained at about 29° C. during the day and 26° C. during the night. Nutrients (Peters Excel® 15-5-15 5-Ca 2-Mg and iron chelate) were applied in the irrigation solution as needed and water was added on a regular basis. Supplemental lighting was provided with overhead metal halide 1000-Watt lamps as necessary. The plants were employed for testing when they reached the first through fourth true leaf stage.\nas §2\n(§11) Treatment requirements were calculated based upon the rates being tested, the concentration of active ingredient or acid equivalent in the formulation and a 12 milliliter (mL) application volume at a rate of 187 liters per hectare (L/ha).\nas §3, §4, §5, §6\n(§12) The treated plants and control plants were placed in a greenhouse as described above and watered by sub-irrigation to prevent wash-off of the test compounds. After approximately 3 weeks, the condition of the test plants as compared with that of the untreated plants was determined visually and scored on a scale of 0 to 100 percent where 0 corresponds to no injury or growth inhibition and 100 corresponds to complete kill. […]"}, "CYPRO": {"test_system": "CYPRO", "test": "In-water applied weed control, transplanted paddy rice (greenhouse)", "format": "in vivo, Cyperus rotundus L. (purple nutsedge)", "conditions": "22 DAA", "description": "Weed seeds or nutlets of the desired test plant species were planted in puddled soil (mud) prepared by mixing a shredded, non-sterilized mineral soil (50.5 percent silt, 25.5 percent clay, and 24 percent sand, with a pH of about 7.6 and an organic matter content of about 2.9 percent) and water at a 1:1 volumetric ratio. The prepared mud was dispensed in 365 mL aliquots into 16-ounce (oz.) non-perforated plastic pots with a surface area of 86.59 square centimeters (cm^2) leaving a headspace of 3 centimeters (cm) in each pot. Rice seeds were planted in Sun Gro MetroMix® 306 planting mixture, which typically has a pH of 6.0 to 6.8 and an organic matter content of about 30 percent, in plastic plug trays. Seedlings at the second or third leaf stage of growth were transplanted into 860 mL of mud contained in 32-oz. non-perforated plastic pots with a surface area of 86.59 cm^2 4 days prior to herbicide application. The paddy was created by filling the headspace of the pots with 2.5 to 3 cm of water. When required to ensure good germination and healthy plants, a fungicide treatment and/or other chemical or physical treatment was applied. The plants were grown for 4-22 days in a greenhouse with an approximate 14 hour (h) photoperiod which was maintained at about 29° C. during the day and about 26° C. during the night. Nutrients were added as Osmocote® (17:6:10, N:P:K+minor nutrients) at 2 g per cup. Water was added on a regular basis to maintain the paddy flood, and supplemental lighting was provided with overhead metal halide 1000-Watt lamps as necessary. The plants were employed for testing when they reached the first through fourth true leaf stage.\nTreatments consisted of the acid or esters of 4-amino-3-chloro-5-fluoro-6-(4-chloro-2-fluoro-3-methoxy-phenyl)pyridine-2-carboxylic acid (compound A) each formulated as an SC (suspension concentrate) and various fungicidal components alone and in combination. Forms of compound A were applied on an acid equivalent basis.\nTreatment requirements for each compound or fungicidal component were calculated based upon the rates being tested, the concentration of active ingredient or acid equivalent in the formulation, an application volume of 2 mL per component per pot, and an application area of 86.59 cm^2 per pot.\nFor formulated compounds, a measured amount was placed in an individual 100 or 200 mL glass vial and was dissolved in a volume of 1.25% (v/v) Agri-Dex® crop oil concentrate to obtain application solutions.\nFor technical grade compounds, a weighed amount was placed in an individual 100 to 200 mL glass vial and dissolved in a volume of acetone to obtain concentrated stock solutions.\nApplications were made by injecting with a pipetter appropriate amounts of the application solutions, individually and sequentially, into the aqueous layer of the paddy. Control plants were treated in the same manner with the solvent blank. Applications were made so that all treated plant material received the same concentrations of acetone and crop oil concentrate.\nThe treated plants and control plants were placed in a greenhouse as described above and water was added as needed to maintain a paddy flood. After approximately 3 weeks the condition of the test plants as compared with that of the untreated plants was determined visually and scored on a scale of 0 to 100 percent where 0 corresponds to no injury or growth inhibition and 100 corresponds to complete kill.\nas §8, §9"}, "ECHCG": {"test_system": "ECHCG", "test": "Postemergence foliar-applied weed control, direct-seeded rice (greenhouse)", "format": "in vivo, Echinochloa crus-galli (L.) P. Beauv. (barnyardgrass)", "conditions": "r10-11 ester 8/16 g ae/ha alone, r12-14 phthalide 100/200/300 g ai/ha alone, r15-20 ester 8/16 at each of 100, 200, 300", "description": "as §1, §2, §3, §4, §5, §6, §7, §8, §9"}, "DIGSA": {"test_system": "DIGSA", "test": "Postemergence foliar-applied weed control, direct-seeded rice (greenhouse)", "format": "in vivo, Digitaria sanguinalis (L.) Scop. (large crabgrass)", "conditions": "21 DAA, r9-11 acid 5.3/10.6/21.2 g ae/ha alone, r12 propiconazole 190 g ai/ha alone, r13-15 acid 5.3/10.6/21.2 + 190", "from_the_text": "as §10, §2, §11, §3, §4, §5, §6, §12"}, "[1]": {"conditions": "r9-11 acid 5.3/10.6/21.2 g ae/ha alone, r12 myclobutanil 250 g ai/ha alone, r13-15 acid 5.3/10.6/21.2 + 250"}}}
{"molecule": "CCCCC(C#N)(Cn1cncn1)c1ccc(Cl)cc1", "note": "(stereo not drawn) [Myclobutanil, 2-p-chlorophenyl-2-(1H-1,2,4-triazol-1-ylmethyl)hexanenitrile, reference compound]", "values": [{"measurement": "Visual Weed Control (%) - 21 DAA IPOHE Obs", "setting": "IPOHE; [1]", "value": 10, "unit": "%"}, {"measurement": "Visual Weed Control (%) - 21 DAA LEFCH Obs", "setting": "LEFCH; [1]", "value": 0, "unit": "%"}]}
{"molecule": "COC(=O)Nc1nc2ccccc2[nH]1", "note": "[Carbendazim, methyl benzimidazol-2-ylcarbamate, reference compound]", "values": [{"measurement": "Visual Weed Control (%) - 19 DAA ECHCO Obs", "setting": "ECHCO; r12-13 carbendazim 125/250 g ai/ha alone, r14-19 ester 8/16/32 at each of 125, 250", "value": 0, "unit": "%"}]}
{"molecule": "CC(C)Oc1cccc(NC(=O)c2ccccc2C(F)(F)F)c1", "note": "[Flutolanil, α,α,α-trifluoro-3′-isopropoxy-o-toluanilide, reference compound]", "values": [{"measurement": "Visual Weed Control (%) - 19 DAA ECHCO Obs", "setting": "ECHCO; r12-13 flutolanil 280/560 g ai/ha alone, r14-19 ester 8/16/32 at each of 280, 560", "value": 0, "unit": "%"}, {"measurement": "Visual Weed Control (%) - 19 DAA LEFCH Obs", "setting": "LEFCH; 19 DAA, r9-11 ester 8/16/32 g ae/ha alone, r12-13 flutolanil 280/560 g ai/ha alone, r14-19 ester 8/16/32 at each of 280, 560", "value": 0, "unit": "%"}]}
{"molecule": "manganese ethylenebis(dithiocarbamate) (polymeric) complex with zinc salt [Mancozeb, reference compound]", "values": [{"measurement": "Visual Weed Control (%) - 21 DAA IPOHE Obs", "setting": "IPOHE; r20-22 ester 8/16/32 g ae/ha alone, r23 mancozeb 1680 g ai/ha alone, r24-26 ester 8/16/32 + 1680", "value": 0, "unit": "%"}, {"measurement": "Visual Weed Control (%) - 21 DAA LEFCH Obs", "setting": "LEFCH; r10-11 ester 16/32 g ae/ha alone, r12 mancozeb 840 g ai/ha alone, r13-14 ester 16/32 + 840", "value": 0, "unit": "%"}]}
{"molecule": "COc1c(Cl)ccc(-c2nc(C(=O)O)c(Cl)c(N)c2F)c1F", "note": "[Compound A Acid, 4-amino-3-chloro-5-fluoro-6-(4-chloro-2-fluoro-3-methoxy-phenyl)pyridine-2-carboxylic acid]", "values": [{"measurement": "Visual Weed Control (%) - 22 DAA CYPRO Obs", "setting": "CYPRO; Compound A Acid 10.6 g ae/ha", "value": 0, "unit": "%"}, {"measurement": "Visual Weed Control (%) - 22 DAA CYPRO Obs", "setting": "CYPRO; Compound A Acid 21.2 g ae/ha", "value": 25, "unit": "%"}, {"measurement": "Visual Weed Control (%) - 22 DAA CYPRO Obs", "setting": "CYPRO; Compound A Acid 42.4 g ae/ha", "value": 95, "unit": "%"}]}
{"molecule": "O=C1OCc2c(Cl)c(Cl)c(Cl)c(Cl)c21", "note": "[Phthalide, 4,5,6,7-tetrachlorophthalide]", "values": [{"measurement": "Visual Weed Control (%) - 21 DAA ECHCG Obs", "setting": "ECHCG", "value": 0, "unit": "%"}]}
{"molecule": "CCCC1COC(Cn2cncn2)(c2ccc(Cl)cc2Cl)O1", "note": "(stereo not drawn) [Propiconazole, 1-[2-(2,4-dichlorophenyl)-4-propyl-1,3-dioxolan-2-ylmethyl]-1H-1,2,4-triazole, reference compound]", "values": [{"measurement": "Visual Weed Control (%) - 21 DAA DIGSA Obs", "setting": "DIGSA", "value": 0, "unit": "%"}]}
